Results on 1 molecule are retold here after publication PMC4669789, “Selective inhibition of HDAC8 decreases neuroblastoma growth in vitro and in vivo and enhances retinoic acid-mediated differentiation” (Cell Death & Disease, 2015).

Assay [1] deals with BE(2)-C cells. The experiment in a line: Western blot of histone 4, α-tubulin and SMC3 acetylation. In kind it is cell-based, human. The method, then:
Western blot analysis was performed as described previously.[15] For detection of phosphoproteins, PhosStop (Roche, Penzberg, Germany) was added to the lysis buffer.
(Immunoblotting shows a protein as a band on a membrane.)

The subject of assay [2] is PBMCs. Kind of assay: Whole lysine acetylation in PBMC after intraperitoneal administration (FACS). In kind it is in vivo, mouse. To be noted: 50 mg/kg/d intraperitoneal; solvent 32.1.
Description: Both inhibitors were intraperitoneally injected into NMRI Foxn1 nude mice in increasing doses from 40 up to 400 mg/kg per day for 2 × 5 days. Each dose was tested in a cohort of three animals. Resulting MTDs were validated within cohorts of eight animals for each inhibitor. […] As a reference, the blood of 12 untreated NMRI Foxn1 nude mice was analyzed. […] Vorinostat was used as a control for unselective HDAC inhibition.
Whole blood (100 μl) was collected from the femoral vein of untreated athymic NMRI nude mice (HsdCpb:NMRI-Foxn1^nu; Harlan Laboratories Inc.), and respective animals were killed 2 h after intraperitoneal injection of substances. For the analysis of whole acetylation levels, mice were killed at half-life time of the inhibitors. Whole blood with heparin was added to RBC lysis buffer (diluted 1 : 10) (BioLegend, San Diego, CA, USA) at a ratio of 1 : 4. Next, red blood cell lysis was performed according to the manufacturer's instructions. PBMCs were lysed in SDS lysis buffer for western blot or processed for FACS analysis.
Cells were permeabilized by incubation with 50 μg/ml digitonin for 6 min at RT. Cells were incubated with primary antibody overnight at 4 °C. After staining with Cy3-conjugated anti-rabbit antibody, cells were analyzed by FACS using CellQuest software (BD Biosciences, San Jose, CA, USA).
Assay [3] has as its target T1, HDAC11 (Homo sapiens, UniProt Q96DB2).
T1 sequence (Q96DB2 14-326 limits assumed): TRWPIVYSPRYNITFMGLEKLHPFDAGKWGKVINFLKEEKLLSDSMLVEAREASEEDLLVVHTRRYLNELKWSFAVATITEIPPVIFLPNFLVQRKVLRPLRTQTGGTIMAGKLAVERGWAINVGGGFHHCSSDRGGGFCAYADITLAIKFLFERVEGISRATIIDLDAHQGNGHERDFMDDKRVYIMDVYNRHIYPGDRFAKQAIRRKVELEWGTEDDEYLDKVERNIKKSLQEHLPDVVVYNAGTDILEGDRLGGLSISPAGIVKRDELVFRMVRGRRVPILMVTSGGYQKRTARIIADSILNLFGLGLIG
The experiment in a line: In vitro HDAC activity assay (Reaction Biology). In kind it is biochemical. To be noted: cell-free; read-out: IC50 values of HDAC8 inhibitors, HDAC11. The method, then:
(§1) Peptide substrate was conjugated with AMC. […] The HDAC reaction was performed at 30 °C for 2 h before adding the developer reagent. The free AMC was detected with excitation of 360 nm and emission 460 nm at kinetic mode for 90 min. IC50 values were calculated with GraphPad Prism version 3.0a (GraphPad Software Inc., San Diego, CA, USA).

Assay [4] addresses HDAC2 (Homo sapiens, UniProt Q92769). The experiment in a line: In vitro HDAC activity assay (Reaction Biology). It counts as biochemical. To be noted: cell-free; read-out: IC50 values of HDAC8 inhibitors, HDAC2. Here is the method:
as §1

The target of assay [5] is HDAC9 (Homo sapiens, UniProt Q9UKV0). Kind of assay: In vitro HDAC activity assay (Reaction Biology). It counts as biochemical. To be noted: cell-free; read-out: IC50 values of HDAC8 inhibitors, HDAC9. The method, then:
as §1

Assay [6] concerns the target T2, HDAC10 (Homo sapiens, UniProt Q969S8).
T2 sequence (Q969S8 1-323 limits assumed): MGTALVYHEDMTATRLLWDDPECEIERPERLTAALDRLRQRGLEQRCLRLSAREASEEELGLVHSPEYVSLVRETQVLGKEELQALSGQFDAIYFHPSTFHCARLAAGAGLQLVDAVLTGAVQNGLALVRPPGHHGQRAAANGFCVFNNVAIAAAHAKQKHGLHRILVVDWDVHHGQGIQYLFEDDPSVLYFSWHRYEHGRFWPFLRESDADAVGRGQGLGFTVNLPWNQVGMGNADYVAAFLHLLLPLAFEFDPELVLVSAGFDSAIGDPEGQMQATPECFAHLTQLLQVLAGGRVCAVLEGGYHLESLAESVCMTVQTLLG
Kind of assay: In vitro HDAC activity assay (Reaction Biology). To be noted: cell-free; read-out: IC50 values of HDAC8 inhibitors, HDAC10. In kind it is biochemical. Here is the method: as §1

In assay [7] the target is HDAC3 (Homo sapiens, UniProt O15379). Kind of assay: In vitro HDAC activity assay (Reaction Biology). In kind it is biochemical. To be noted: cell-free; read-out: IC50 values of HDAC8 inhibitors, HDAC3. The method, then:
as §1

For assay [8], the target named is HDAC5 (Homo sapiens, UniProt Q9UQL6). The experiment in a line: In vitro HDAC activity assay (Reaction Biology). In kind it is biochemical. To be noted: cell-free; read-out: IC50 values of HDAC8 inhibitors, HDAC5. Here is the method:
as §1

The target in assay [9] is T3, HDAC6 (Homo sapiens, UniProt Q9UBN7).
T3 sequence (Q9UBN7 1-1215): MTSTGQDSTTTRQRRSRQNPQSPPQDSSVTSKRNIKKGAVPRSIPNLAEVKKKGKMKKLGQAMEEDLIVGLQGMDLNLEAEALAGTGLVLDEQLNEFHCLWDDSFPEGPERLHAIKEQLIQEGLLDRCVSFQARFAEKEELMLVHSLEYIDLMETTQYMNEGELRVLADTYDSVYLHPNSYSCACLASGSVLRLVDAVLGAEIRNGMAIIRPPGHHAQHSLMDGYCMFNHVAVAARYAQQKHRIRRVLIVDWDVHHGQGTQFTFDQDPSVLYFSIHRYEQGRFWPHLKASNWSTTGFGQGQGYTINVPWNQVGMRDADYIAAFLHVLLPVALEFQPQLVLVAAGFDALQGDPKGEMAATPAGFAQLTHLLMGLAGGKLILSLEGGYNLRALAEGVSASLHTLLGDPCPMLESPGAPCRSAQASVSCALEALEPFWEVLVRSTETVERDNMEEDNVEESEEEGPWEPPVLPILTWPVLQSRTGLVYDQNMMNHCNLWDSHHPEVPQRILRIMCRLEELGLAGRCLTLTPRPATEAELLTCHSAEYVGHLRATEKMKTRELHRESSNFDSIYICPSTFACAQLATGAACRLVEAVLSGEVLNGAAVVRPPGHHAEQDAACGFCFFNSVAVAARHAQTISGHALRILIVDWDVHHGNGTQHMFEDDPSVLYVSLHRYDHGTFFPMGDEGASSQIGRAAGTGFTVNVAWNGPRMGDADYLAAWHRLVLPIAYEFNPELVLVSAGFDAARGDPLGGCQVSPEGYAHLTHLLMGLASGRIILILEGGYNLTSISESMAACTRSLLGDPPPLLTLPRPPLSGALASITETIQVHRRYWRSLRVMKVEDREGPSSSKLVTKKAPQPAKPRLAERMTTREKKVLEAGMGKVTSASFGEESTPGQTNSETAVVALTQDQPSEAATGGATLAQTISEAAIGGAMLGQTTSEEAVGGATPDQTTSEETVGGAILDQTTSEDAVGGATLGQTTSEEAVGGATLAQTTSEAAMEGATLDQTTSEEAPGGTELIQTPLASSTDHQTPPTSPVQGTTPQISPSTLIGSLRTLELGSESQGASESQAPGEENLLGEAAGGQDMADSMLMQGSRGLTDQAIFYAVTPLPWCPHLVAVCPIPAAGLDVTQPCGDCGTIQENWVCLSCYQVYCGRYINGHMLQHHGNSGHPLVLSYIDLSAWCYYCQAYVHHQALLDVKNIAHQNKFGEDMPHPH
The experiment in a line: In vitro HDAC activity assay (Reaction Biology). In kind it is biochemical. Here is the method: as §1

[10] abbreviates: working concentrations: 40 μM Cpd2, 4 μM PCI-34051 and PCI-48000.

Bounds are passed on as bounds.

Chain of HDAC9 (Q9UKV0 631-978 limits assumed): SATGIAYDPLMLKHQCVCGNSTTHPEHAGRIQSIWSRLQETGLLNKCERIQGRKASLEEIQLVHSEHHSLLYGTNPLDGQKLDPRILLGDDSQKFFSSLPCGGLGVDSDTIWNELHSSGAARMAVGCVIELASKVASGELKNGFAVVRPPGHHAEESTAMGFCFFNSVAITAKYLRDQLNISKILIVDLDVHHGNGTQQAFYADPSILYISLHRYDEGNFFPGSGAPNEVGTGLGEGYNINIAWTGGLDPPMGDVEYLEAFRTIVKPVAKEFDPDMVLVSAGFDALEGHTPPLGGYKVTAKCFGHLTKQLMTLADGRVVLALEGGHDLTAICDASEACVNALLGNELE
Chain of HDAC5 (Q9UQL6 684-1028 limits assumed): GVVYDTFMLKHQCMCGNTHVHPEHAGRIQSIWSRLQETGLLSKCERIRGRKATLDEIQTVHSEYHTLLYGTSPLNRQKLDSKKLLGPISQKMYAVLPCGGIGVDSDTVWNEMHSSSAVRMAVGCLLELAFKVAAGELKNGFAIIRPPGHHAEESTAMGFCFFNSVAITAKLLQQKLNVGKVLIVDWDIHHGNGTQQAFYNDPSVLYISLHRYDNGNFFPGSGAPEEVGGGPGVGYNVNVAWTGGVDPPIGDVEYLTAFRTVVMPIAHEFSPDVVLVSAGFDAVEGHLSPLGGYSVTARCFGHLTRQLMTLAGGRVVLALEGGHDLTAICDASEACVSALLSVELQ
Chain of HDAC2 (Q92769 9-322 limits assumed): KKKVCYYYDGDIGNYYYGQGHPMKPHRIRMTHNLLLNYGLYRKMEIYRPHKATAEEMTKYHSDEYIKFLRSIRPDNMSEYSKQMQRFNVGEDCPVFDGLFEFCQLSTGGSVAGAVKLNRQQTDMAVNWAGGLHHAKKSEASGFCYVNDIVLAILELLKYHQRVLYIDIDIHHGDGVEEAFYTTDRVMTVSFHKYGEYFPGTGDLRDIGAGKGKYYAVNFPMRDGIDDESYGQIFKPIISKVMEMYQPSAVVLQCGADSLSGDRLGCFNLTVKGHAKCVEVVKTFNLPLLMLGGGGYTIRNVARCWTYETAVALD
Chain of HDAC3 (O15379 3-316 limits assumed): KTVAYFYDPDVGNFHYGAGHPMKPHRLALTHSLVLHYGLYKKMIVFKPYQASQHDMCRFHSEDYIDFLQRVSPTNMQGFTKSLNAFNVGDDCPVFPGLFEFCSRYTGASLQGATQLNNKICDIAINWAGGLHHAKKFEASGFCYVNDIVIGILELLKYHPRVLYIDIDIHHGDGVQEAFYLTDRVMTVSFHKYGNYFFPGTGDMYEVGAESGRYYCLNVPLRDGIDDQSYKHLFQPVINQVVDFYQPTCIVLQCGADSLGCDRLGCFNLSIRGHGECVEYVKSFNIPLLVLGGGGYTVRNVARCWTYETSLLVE
Chain of HDAC3 (Q9Y618 395-489 partner limits assumed): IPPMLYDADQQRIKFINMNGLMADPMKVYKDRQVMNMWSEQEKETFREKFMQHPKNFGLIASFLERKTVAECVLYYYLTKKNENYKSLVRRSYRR

For orientation: IC50 means the concentration that inhibits the measured activity by half. For `O=C(NO)c1cccc2ccccc12` [Cpd2, 1-naphthohydroxamic acid], the “tubulin acetylation (HDAC6 off-target activity)” value in assay [1] (increasing concentrations far above IC50 values (up to 200 μM Cpd2, 100 μM PCI-34051)) is “induced tubulin acetylation”. Further, in assay [1] (setting [10]), the “SMC3 acetylation (HDAC8 substrate)” value is recorded as “increase in acetylation level”. Further, the “histone 4 acetylation (HDAC1-3 substrate)” value in [1] (setting [10]) is reported as “absence of HDAC1-3 substrate acetylation”. Moreover, the “tubulin acetylation (HDAC6 substrate)” value in [1] (setting [10]) is “absence of HDAC6 substrate acetylation”. The “whole acetyl-lysine mean fluorescent values (Blank-corrected), PBMCs” value in assay [2] came out at 39.2. Also, the IC50 in assay [3], in [4], in assay [5], in assay [6], in [7] and in assay [8] was more than 75.6 µM in each case. Further, the IC50 in [9] (cell-free, read-out: IC50 values of HDAC8 inhibitors, HDAC6) worked out at 75.6 µM. In addition, the “concentrations above which HDAC6 and HDAC1 are potential off-target HDACs” value in assay [9] (from cell-free assays of HDACs 1–11) is reported as “above 75 μM”.
